Measurements from ChEMBL document CHEMBL3886974, “Imidazopyrazines” (2016).

Target: T1, Dual specificity protein kinase TTK (Homo sapiens, UniProt P33981)
T1 sequence (P33981 whole entry): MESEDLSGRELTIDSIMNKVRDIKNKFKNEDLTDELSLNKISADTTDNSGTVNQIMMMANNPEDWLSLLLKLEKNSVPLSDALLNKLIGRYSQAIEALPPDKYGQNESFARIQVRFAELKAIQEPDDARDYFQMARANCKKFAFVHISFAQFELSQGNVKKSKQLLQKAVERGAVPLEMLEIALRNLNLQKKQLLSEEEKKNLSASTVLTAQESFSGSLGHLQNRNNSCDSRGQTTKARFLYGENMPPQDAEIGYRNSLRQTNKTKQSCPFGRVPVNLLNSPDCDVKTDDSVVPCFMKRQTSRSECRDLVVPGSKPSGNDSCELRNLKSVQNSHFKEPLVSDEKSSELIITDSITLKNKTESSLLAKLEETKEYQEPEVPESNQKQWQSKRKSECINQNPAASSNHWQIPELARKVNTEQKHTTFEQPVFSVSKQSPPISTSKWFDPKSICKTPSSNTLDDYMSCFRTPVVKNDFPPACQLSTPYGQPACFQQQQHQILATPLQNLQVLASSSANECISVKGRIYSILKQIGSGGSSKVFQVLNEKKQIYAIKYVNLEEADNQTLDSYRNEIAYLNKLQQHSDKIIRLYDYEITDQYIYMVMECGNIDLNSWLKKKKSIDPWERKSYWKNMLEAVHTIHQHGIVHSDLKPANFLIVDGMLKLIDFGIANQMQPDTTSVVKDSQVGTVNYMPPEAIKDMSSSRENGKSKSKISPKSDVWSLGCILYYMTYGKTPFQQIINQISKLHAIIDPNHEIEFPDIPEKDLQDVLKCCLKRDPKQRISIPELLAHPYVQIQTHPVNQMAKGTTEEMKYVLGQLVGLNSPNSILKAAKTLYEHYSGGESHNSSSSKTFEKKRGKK
Experiment: Kinase Assay: For the assay 50 nl of a 100-fold concentrated solution of the test compound in DMSO was pipetted into a black low volume 384 well microtiter plate (Greiner Bio-One, Frickenhausen, Germany), 2 ul of a solution of Mps-1 in assay buffer [0.1 mM sodium-ortho-vanadate, 10 mM MgCl2, 2 mM DTT, 25 mM Hepes pH 7.7, 0.05% BSA, 0.001% Pluronic F-127] were added and the mixture was incubated for 15 min at 22° C. to allow pre-binding of the test compounds to Mps-1 before the start of the kinase reaction. Then the kinase reaction was started by the addition of 3 ul of a solution of 16.7 adenosine-tri-phosphate (ATP, 16.7 uM=>final conc. in the 5 ul assay volume is 10 uM) and peptide substrate (1.67 uM=>final conc. in the 5 ul assay volume is 1 uM) in assay buffer and the resulting mixture was incubated for a reaction time of 60 min at 22° C. The concentration of Mps-1 in the assay was adjusted to the activity of the enzyme lot and was chosen appropriate to have the assay in the linear range, typical enzyme concentrations were in the range of about 1 nM (final conc. in the 5 ul assay volume). […]

Compound | IC50
CSc1nc(-c2ccccc2)cn2c(-c3ccc(C(=O)NC4CC4)cc3)cnc12 | 0.0257 µM
CSc1nc(C#CCO)cn2c(-c3ccc(-c4cnc(C5CC5)[nH]4)cc3)cnc12 | 0.151 µM
